{"source": "patent US20260176285A1", "about": "“SALT OF DIOXANE QUINOLINE COMPOUND, CRYSTAL FORM THEREOF, PREPARATION METHODS THEREFOR AND USES THEREOF” (Beijing Scitech-MQ Pharmaceuticals Limited, priority 2022, published 2026)", "key": {"[1]": {"assay": "Solid-state stability evaluation (XRPD, HPLC)", "format": "physicochemical", "conditions": "listed as Phosphate salt crystal form A-V", "procedure": "The following 6 test samples were placed under 25° C./60% RH and 40° C./75% RH conditions for 1 week, and then the physical and chemical stability of the samples was tested by XRPD and HPLC.\nAt the same time, after the p-toluenesulfonate salt crystal form A-II and crystal form B-III solids were placed at 80° C. for 24 hours, the physical and chemical stability of the samples were tested by XRPD and HPLC."}, "[2]": {"tested_on": "human lung cancer cells EBC-1", "assay": "Efficacy in nude mouse tumor-bearing model of human lung cancer cells EBC-1", "format": "in vivo, Balb/c nude mouse", "summary_of_the_method": "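Female BALB/c nude mice bearing subcutaneous EBC-1 xenografts (5×10^6 cells; 150-200 mm^3 at start), 6/group, dosed orally once daily for about 3 weeks at 15 and 7.5 mg/kg (free-base equivalent) in 0.1% CMC-Na. Tumors measured twice weekly; T/C (%) from relative tumor volume versus vehicle.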"}, "[3]": {"assay": "Hygroscopicity by dynamic moisture sorption (DVS)", "format": "physicochemical", "conditions": "DVS, listed as Phosphate salt crystal form A-V", "summary_of_the_method": "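Mass change of salt and free-form crystal samples recorded at 25° C over a 0% RH-95% RH-0% RH cycle. Steps were 10% RH (last step 5%) with a dm/dt equilibrium criterion of 0.002%/min.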"}, "[4]": {"assay": "Dynamic solubility in water, SGF, FaSSIF and FeSSIF", "format": "physicochemical", "parameters": "S (dynamic solubility): unit not given here", "conditions": "listed as Phosphate salt crystal form A-V; for S (dynamic solubility): 37° C., feed 10 mg/mL", "summary_of_the_method": "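Free form and salt crystal forms tested over time in water, SGF (pH 1.8), FaSSIF (pH 6.5) and FeSSIF (pH 5.0), simulated fluids made with SIF powder. At each time point samples were centrifuged, passed through 0.45 μm PTFE, and filtrate concentration (HPLC) and pH measured.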"}}, "data": [{"smiles": "O=C(Nc1ccc(F)cc1)C1(C(=O)Nc2ccc(Oc3ccnc4cc(OCCCN5CCOCC5)c5c(c34)OCCO5)c(F)c2)CC1", "note": "[Example 5, N-(3-fluoro-4-((5-(3-morpholinopropoxy)-2,3-dihydro-[1,4]dioxano[2,3-f]quinolin-10-yl)oxy)phenyl)-N-(4-fluorophenyl)cyclopropane-1,1-dicarboxamide]", "values": [{"measurement": "Purity", "setting": "[1]; 25° C./60% RH, 1 week", "result": 99.13, "unit": "area %"}, {"measurement": "Purity", "setting": "[1]; 40° C./75% RH, 1 week", "result": 99.13, "unit": "area %"}, {"measurement": "Purity", "setting": "[1]; Starting", "result": 99.23, "unit": "area %"}, {"measurement": "T/C (relative tumor proliferation rate)", "setting": "[2]; 7.5 mg/kg oral once a day, day 3", "result": 97.1, "unit": "%"}, {"measurement": "T/C (relative tumor proliferation rate)", "setting": "[2]; 7.5 mg/kg oral once a day, day 7", "result": 80.6, "unit": "%"}, {"measurement": "T/C (relative tumor proliferation rate)", "setting": "[2]; 7.5 mg/kg oral once a day, day 10", "result": 76.3, "unit": "%"}, {"measurement": "T/C (relative tumor proliferation rate)", "setting": "[2]; 7.5 mg/kg oral once a day, day 14", "result": 68.2, "unit": "%"}, {"measurement": "T/C (relative tumor proliferation rate)", "setting": "[2]; 7.5 mg/kg oral once a day, day 18", "result": 66.5, "unit": "%"}, {"measurement": "T/C (relative tumor proliferation rate)", "setting": "[2]; 7.5 mg/kg oral once a day, day 21", "result": 58.8, "unit": "%"}, {"measurement": "T/C (relative tumor proliferation rate)", "setting": "[2]; 15 mg/kg oral once a day, day 3", "result": 76.0, "unit": "%"}, {"measurement": "T/C (relative tumor proliferation rate)", "setting": "[2]; 15 mg/kg oral once a day, day 7", "result": 49.9, "unit": "%"}, {"measurement": "T/C (relative tumor proliferation rate)", "setting": "[2]; 15 mg/kg oral once a day, day 10", "result": 43.8, "unit": "%"}, {"measurement": "T/C (relative tumor proliferation rate)", "setting": "[2]; 15 mg/kg oral once a day, day 14", "result": 37.1, "unit": "%"}, {"measurement": "T/C (relative tumor proliferation rate)", "setting": "[2]; 15 mg/kg oral once a day, day 18", "result": 33.0, "unit": "%"}, {"measurement": "T/C (relative tumor proliferation rate)", "setting": "[2]; 15 mg/kg oral once a day, day 21", "result": 26.2, "unit": "%"}, {"measurement": "Moisture adsorption (25° C./80% RH)", "setting": "[3]; 25° C./80% RH", "result": 6.43, "unit": "%"}, {"measurement": "Hygroscopicity", "setting": "[3]; 25° C.", "result": "Hygroscopic"}, {"measurement": "S (dynamic solubility)", "setting": "[4]; FaSSIF, 1 hour", "result": 0.028}, {"measurement": "pH of the filtrate", "setting": "[4]; FaSSIF, 1 hour", "result": 5.8}, {"measurement": "S (dynamic solubility)", "setting": "[4]; FaSSIF, 2 hours", "result": 0.030}, {"measurement": "pH of the filtrate", "setting": "[4]; FaSSIF, 2 hours", "result": 5.8}, {"measurement": "S (dynamic solubility)", "setting": "[4]; FaSSIF, 4 hours", "result": 0.024}, {"measurement": "pH of the filtrate", "setting": "[4]; FaSSIF, 4 hours", "result": 5.8}, {"measurement": "S (dynamic solubility)", "setting": "[4]; FaSSIF, 24 hours", "result": 0.080}, {"measurement": "pH of the filtrate", "setting": "[4]; FaSSIF, 24 hours", "result": 5.3}, {"measurement": "S (dynamic solubility)", "setting": "[4]; FeSSIF, 1 hour", "result": 1.5}, {"measurement": "pH of the filtrate", "setting": "[4]; FeSSIF, 1 hour", "result": 4.9}, {"measurement": "S (dynamic solubility)", "setting": "[4]; FeSSIF, 2 hours", "result": 1.4}, {"measurement": "pH of the filtrate", "setting": "[4]; FeSSIF, 2 hours", "result": 5.0}, {"measurement": "S (dynamic solubility)", "setting": "[4]; FeSSIF, 4 hours", "result": 1.3}, {"measurement": "pH of the filtrate", "setting": "[4]; FeSSIF, 4 hours", "result": 5.0}, {"measurement": "S (dynamic solubility)", "setting": "[4]; FeSSIF, 24 hours", "result": 0.20}, {"measurement": "pH of the filtrate", "setting": "[4]; FeSSIF, 24 hours", "result": 5.0}, {"measurement": "S (dynamic solubility)", "setting": "[4]; H2O, 1 hour", "result": 2.5}, {"measurement": "pH of the filtrate", "setting": "[4]; H2O, 1 hour", "result": 4.5}, {"measurement": "S (dynamic solubility)", "setting": "[4]; H2O, 2 hours", "result": 2.6}, {"measurement": "pH of the filtrate", "setting": "[4]; H2O, 2 hours", "result": 4.5}, {"measurement": "S (dynamic solubility)", "setting": "[4]; H2O, 4 hours", "result": 2.4}, {"measurement": "pH of the filtrate", "setting": "[4]; H2O, 4 hours", "result": 4.5}, {"measurement": "S (dynamic solubility)", "setting": "[4]; H2O, 24 hours", "result": 2.5}, {"measurement": "pH of the filtrate", "setting": "[4]; H2O, 24 hours", "result": 4.4}, {"measurement": "S (dynamic solubility)", "setting": "[4]; SGF, 1 hour", "result": 6.9}, {"measurement": "pH of the filtrate", "setting": "[4]; SGF, 1 hour", "result": 2.7}, {"measurement": "S (dynamic solubility)", "setting": "[4]; SGF, 2 hours", "result": "completely dissolved"}, {"measurement": "S (dynamic solubility)", "setting": "[4]; SGF, 4 hours", "result": "completely dissolved"}, {"measurement": "S (dynamic solubility)", "setting": "[4]; SGF, 24 hours", "result": 6.4}, {"measurement": "pH of the filtrate", "setting": "[4]; SGF, 24 hours", "result": 2.7}]}]}
